molecular target: T1, human SSTR5 (Homo sapiens, UniProt P35346); assay: Inositol phosphate accumulation assay (IP1 HTRF, antagonist mode); format: cell-based; conditions: CHO-K1 cells co-expressing human SSTR5 with Gqi5, SST28 agonist at concentration generating 90% of full activation
T1 construct: expressed in transfected cells
Summary of the method: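 CHO-K1 cells stably co-expressing human SSTR5 and chimeric Gqi5 were pre-incubated with compound 15 minutes at 37° C, then stimulated with SST28 (30 nM as added, about EC90) for 90 minutes. IP1 read by HTRF (665/620 nm). % inhibition normalized to Max/Min controls; IC50 and maximal inhibition from 4-parameter fit.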

T1 sequence (P35346 whole entry): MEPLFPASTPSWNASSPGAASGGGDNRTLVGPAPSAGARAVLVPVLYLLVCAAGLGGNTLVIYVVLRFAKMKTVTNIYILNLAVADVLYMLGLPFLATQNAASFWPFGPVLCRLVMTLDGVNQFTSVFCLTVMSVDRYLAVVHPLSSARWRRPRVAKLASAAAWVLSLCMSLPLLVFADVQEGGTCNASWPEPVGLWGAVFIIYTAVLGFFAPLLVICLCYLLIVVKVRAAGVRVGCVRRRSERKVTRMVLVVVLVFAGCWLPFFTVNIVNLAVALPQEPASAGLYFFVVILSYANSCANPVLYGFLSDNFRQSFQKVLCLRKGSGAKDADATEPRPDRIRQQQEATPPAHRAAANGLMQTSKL

Compound | IC50
CCOc1cc(CN2CCC3(CC2)CN(c2ccc(C(=O)NCCS(=O)(=O)O)cc2)C(=O)O3)cc(OCC)c1-c1ccc(F)cc1 [Example 12, 2-(4-(8-((2,6-diethoxy-4′-fluoro-[1,1′-biphenyl]-4-yl)methyl)-2-oxo-1-oxa-3,8-diazaspiro[4.5]decan-3-yl)benzamido)ethane-1-sulfonic acid] | > 5000 nM
CCOc1cc(-c2ccc(F)cc2)c(C2CC2)cc1CN1CCN(C(=O)Oc2ccc(C(=O)NC[C@H](O)[C@@H](O)[C@H](O)[C@H](O)CO)cc2)CC1 [compound 94] | ≤ 100 nM
CCOc1cc(C(=O)OC)c(C2CC2)cc1CN1CCC2(CC1)CN(c1ccc(C(=O)NCCCS(=O)(=O)O)cc1)C(=O)N2 [Example 78, 3-(4-(8-(5-cyclopropyl-2-ethoxy-4-(methoxycarbonyl)benzyl)-2-oxo-1,3,8-triazaspiro[4.5]decan-3-yl)benzamido)propane-1-sulfonic acid] | > 5000 nM
CCOc1cc(CN2CCC3(CC2)CN(c2ccc(C(=O)NC[C@H](O)[C@@H](O)[C@H](O)[C@H](O)CO)cc2)C(=O)O3)cc(OCC)c1-c1ccc(F)cc1 [Example 4, 4-(8-((2,6-diethoxy-4′-fluoro-[1,1′-biphenyl]-4-yl)methyl)-2-oxo-1-oxa-3,8-diazaspiro[4.5]decan-3-yl)-N-((2S,3R,4R,5R)-2,3,4,5,6-pentahydroxyhexyl)benzamide] | 100 to 1000 nM
CCOc1cc(C(=O)OC)c(C2CC2)cc1CN1CCC2(CC1)CC(=O)N(c1ccc(C(=O)NCCCNC(N)=O)cc1)C2 [Example 39, methyl 2-cyclopropyl-5-ethoxy-4-((3-oxo-2-(4-((3-ureidopropyl)carbamoyl)phenyl)-2,8-diazaspiro[4.5]decan-8-yl)methyl)benzoate] | 100 to 1000 nM
CCOc1cc(-c2ccc(F)cc2)c(C2CC2)cc1CN1CCC2(CC1)CN(c1ccc(C(=O)NCCCS(=O)(=O)O)cc1)C(=O)N2 [Example 66, 3-(4-(8-((2-cyclopropyl-5-ethoxy-4′-fluoro-[1,1′-biphenyl]-4-yl)methyl)-2-oxo-1,3,8-triazaspiro[4.5]decan-3-yl)benzamido)propane-1-sulfonic acid] | ≤ 100 nM
CCOc1cc(C(=O)OC)c(C2CC2)cc1CN1CCC2(CC1)CC(=O)N(c1ccc(C(=O)N3C[C@H](O)[C@@H](O)C3)cc1)C2 [Example 43, methyl 2-cyclopropyl-4-((2-(4-((3S,4S)-3,4-dihydroxypyrrolidine-1-caibonyl)phenyl)-3-oxo-2,8-diazaspiro[4.5]decan-8-yl)methyl)-5-ethoxy benzoate] | > 5000 nM
CCOc1cc(C(=O)OC)c(C2CC2)cc1CN1CCC2(CC1)CC(=O)N(c1ccc(C(=O)NCCC(=O)O)cc1)C2 [Example 25, 3-(4-(8-(5-cyclopropyl-2-ethoxy-4-(methoxycarbonyl)benzyl)-3-oxo-2,8-diazaspiro[4.5]decan-2-yl)benzamido)propanoic acid] | 100 to 1000 nM
CCOc1cc(C(=O)OC)c(C2CC2)cc1CN1CCC2(CC1)CC(=O)N(c1ccc(C(=O)N3CCC(S(N)(=O)=O)CC3)cc1)C2 [Example 52, methyl 2-cyclopropyl-5-ethoxy-4-((3-oxo-2-(4-(4-sulfamoylpiperidine-1-carbonyl)phenyl)-2,8-diazaspiro[4.5]decan-8-yl)methyl)benzoate] | 100 to 1000 nM
CCOc1cc(C(=O)OC)c(C2CC2)cc1CN1CCC2(CC1)CC(=O)N(c1ccc(C(=O)NC[C@H](O)CO)cc1)C2 [Example 35, methyl (S)-2-cyclopropyl-4-((2-(4-((2,3-dihydroxypropyl)carbamoyl)phenyl)-3-oxo-2,8-diazaspiro[4.5]decan-8-yl)methyl)-5-ethoxybenzoate] | 100 to 1000 nM
CCOc1cc(C(=O)OC)c(C2CC2)cc1CN1CCC2(CC1)CN(c1ccc(C(=O)NCCCS(=O)(=O)O)cc1)C(=O)O2 [Example 58, 3-(4-(8-(5-cyclopropyl-2-ethoxy-4-(methoxycarbonyl)benzyl)-2-oxo-1-oxa-3,8-diazaspiro[4.5]decan-3-yl)benzamido)propane-1-sulfonic acid] | ≤ 100 nM
CCOc1cc(-c2ccc(F)cn2)c(C2CC2)cc1CN1CCC2(CC1)CN([C@H]1CC[C@@](C)(C(=O)NCCOCCO)CC1)C(=O)O2 [compound 89] | 100 to 1000 nM
CCOc1cc(-c2ccc(F)cc2)c(C2CC2)cc1CN1CCC2(CC1)CN(c1ccc(C(=O)NCCOCCO)cc1)S(=O)(=O)N2 [compound 87, 4-(8-((2-cyclopropyl-5-ethoxy-4′-fluoro-[1,1′-biphenyl]-4-yl)methyl)-2,2-dioxido-2-thia-1,3,8-triazaspiro [4.5]decan-3-yl)-N-(2-(2-hydroxyethoxy)ethyl)benzamide] | ≤ 100 nM
CCOc1cc(C(=O)OC)c(C2CC2)cc1CN1CCC2(CC1)CC(=O)N(c1ccc(C(=O)NCCCP(=O)(O)O)cc1)C2 [Example 32, (3-(4-(8-(5-cyclopropyl-2-ethoxy-4-(methoxycarbonyl)benzyl)-3-oxo-2,8-diazaspiro[4.5]decan-2-yl)benzamido)propyl)phosphonic acid] | > 5000 nM
CCOc1cc(-c2ccc(F)cc2)c(C2CC2)cc1CN1CCC2(CC1)CN(c1ccc(C(=O)NC[C@H](O)[C@@H](O)[C@H](O)[C@H](O)CO)cc1)C(=O)O2 [Example 60, 4-(8-((2-cyclopropyl-5-ethoxy-4′-fluoro-[1,1′-biphenyl]-4-yl)methyl)-2-oxo-1-oxa-3,8-diazaspiro[4.5]decan-3-yl)-N-((2S,3R,4R,5R)-2,3,4,5,6-pentahydroxyhexyl)benzamide] | ≤ 100 nM
CCOc1cc(C(=O)OC)c(C2CC2)cc1CN1CCC2(CC1)CN(c1ccc(C(=O)NCCCS(N)(=O)=O)cc1)C(=O)N2 [Example 79, methyl 2-cyclopropyl-5-ethoxy-4-((2-oxo-3-(4-((3-sulfamoylpropyl)carbamoyl)phenyl)-1,3,8-triazaspiro[4.5]decan-8-yl)methyl)benzoate] | 100 to 1000 nM
CCOc1cc(C(=O)OC)c(C2CC2)cc1CN1CCC2(CC1)CC(=O)N(c1ccc(C(=O)N3CCC(CS(N)(=O)=O)CC3)cc1)C2 [Example 53, methyl 2-cyclopropyl-5-ethoxy-4-((3-oxo-2-(4-(4-(sulfamoylmethyl)piperidine-1-carbonyl)phenyl)-2,8-diazaspiro[4.5]decan-8-yl)methyl)benzoate] | 100 to 1000 nM
CCOc1cc(C(=O)OC)c(C2CC2)cc1CN1CCC2(CC1)CC(=O)N(c1ccc(C(=O)NCCCCP(=O)(O)O)cc1)C2 [Example 47, (4-(4-(8-(5-cyclopropyl-2-ethoxy-4-(methoxycarbonyl)benzyl)-3-oxo-2,8-diazaspiro[4.5]decan-2-yl)benzamido)butyl)phosphonic acid] | 100 to 1000 nM
CCOc1cc(C(=O)OC)c(C2CC2)cc1CN1CCC2(CC1)CC(=O)N(c1ccc(C(=O)NCCO)cc1)C2 [Example 20, methyl 2-cyclopropyl-5-ethoxy-4-((2-(4-((2-hydroxyethyl)carbamoyl)phenyl)-3-oxo-2,8-diazaspiro[4.5]decan-8-yl)methyl)benzoate] | ≤ 100 nM
CCOc1cc(-c2ccc(F)cc2)c(C2CC2)cc1CN1CCC2(CC1)CN(c1ccc(S(=O)(=O)NCCCNC(=N)N)cc1)C(=O)O2 [compound 80, 4-(8-((2-cyclopropyl-5-ethoxy-4′-fluoro-[1,1′-biphenyl]-4-yl)methyl)-2-oxo-1-oxa-3,8-diazaspiro [4.5]decan-3-yl)-N-(3-guanidinopropyl)benzenesulfonamide] | ≤ 100 nM
CCOc1cc(C(=O)OC)c(C2CC2)cc1CN1CCC2(CC1)CN(c1ccc(C(=O)NCCOCCO)cc1)C(=O)O2 [Example 56, methyl 2-cyclopropyl-5-ethoxy-4-((3-(4-((2-(2-hydroxyethoxy)ethyl)carbamoyl)phenyl)-2-oxo-1-oxa-3,8-diazaspiro[4.5]decan-8-yl)methyl)benzoate] | ≤ 100 nM
CCOc1cc(C(=O)OCc2oc(=O)oc2C)c(C2CC2)cc1CN1CCC2(CC1)CC(=O)N(c1ccc(C(=O)NC[C@H](O)[C@@H](O)[C@H](O)[C@H](O)CO)cc1)C2 [compound 24] | > 5000 nM
CCOc1cc(CN2CCC3(CC2)CN(c2ccc(C(=O)N4CC(C(=O)NCCC[N+](C)(C)C)C4)cc2)C(=O)O3)cc(OCC)c1-c1ccc(F)cc1 [Example 8, 3-(1-(4-(8-((2,6-diethoxy-4′-fluoro-[1,1′-biphenyl]-4-yl)methyl)-2-oxo-1-oxa-3,8-diazaspiro[4.5]decan-3-yl)benzoyl)azetidine-3-carboxamido)-N,N,N-trimethylpropan-1-aminium] | 1000 to 5000 nM
CCOc1cc(C(=O)OC)c(C2CC2)cc1CN1CCC2(CC1)CC(=O)N(c1ccc(C(=O)NCCCNC(=N)N)cc1)C2 [Example 55, methyl 2-cyclopropyl-5-ethoxy-4-((2-(4-((3-guanidinopropyl)carbamoyl)phenyl)-3-oxo-2,8-diazaspiro [4.5]decan-8-yl)methyl)benzoate] | 100 to 1000 nM
CCOc1cc(-c2ccc(F)cc2)c(C2CC2)cc1CN1CCC2(CC1)CN(c1ccc(S(=O)(=O)NCCOCCO)cc1)C(=O)N2 [compound 85, 4-(8-((2-cyclopropyl-5-ethoxy-4′-fluoro-[1,1′-biphenyl]-4-yl)methyl)-2-oxo-1,3,8-triazaspiro[4.5]decan-3-yl)-N-(2-(2-hydroxyethoxy)ethyl)benzenesulfonamide] | ≤ 100 nM
CCOc1cc(C(=O)OC)c(C2CC2)cc1CN1CCN(C(=O)Oc2ccc(C(=O)NC[C@H](O)[C@@H](O)[C@H](O)[C@H](O)CO)cc2)CC1 [Example 96] | 100 to 1000 nM
CCOc1cc(C(=O)OC)c(C2CC2)cc1CN1CCC2(CC1)CC(=O)N(c1ccc(C(=O)NCCCP(C)(=O)O)cc1)C2 [Example 33, (3-(4-(8-(5-cyclopropyl-2-ethoxy-4-(methoxycarbonyl)benzyl)-3-oxo-2,8-diazaspiro[4.5]decan-2-yl)benzamido)propyl)(methyl)phosphinic acid] | > 5000 nM
CCOc1cc(-c2ccc(F)cc2)c(C2CC2)cc1CN1CCC2(CC1)CN(c1ccc(C(=O)NCCOC(CO)CO)cc1)C(=O)N2 [Example 73, 4-(8-((2-cyclopropyl-5-ethoxy-4′-fluoro-[1,1′-biphenyl]-4-yl)methyl)-2-oxo-1,3,8-triazaspiro[4.5]decan-3-yl)-N-(2-((1,3-dihydroxypropan-2-yl)oxy)ethyl)benzamide] | ≤ 100 nM

Source: US20230113609A1, “SSTR5 ANTAGONISTS” (Kallyope, Inc., priority 2019, published 2023)
